What was measured:
Format in all cases: cell-based, human
MCF-7/vBOS cells = assay: Adherens junction stability: cell rounding after EGTA-containing medium (live imaging); settings: pre-treated 48 hours; EGTA 8×10^−3 M, 120 minutes; vs control cells
Description: FIG. 9 provides a CellProfiler/CellProfiler-Analyst-based quantification (analogous to FIG. 7) showing the rate of cell rounding over the course of 120 minutes in MCF7/vBOS cells pre-treated with fulvestrant for 48 hours (dotted bars) compared to solvent control cells (black bars). Indicated time points depict time after application of EGTA-containing medium (EGTA, 8×10^−3 M) to disrupt adherens junctions. Biological replicates, n=3. Error bars, mean+/−s.e.m. Statistical testing, one-way ANOVA with Sidak's correction for multiple comparisons; *, p<0.05; **, p<0.01; ***, p<0.005; ****, p<0.001. Scale bar, 50 μm.
In a further set of experiments, the inventors tested whether the anti-estrogen-mediated reorganization of adherens junctions likewise increased adherens junction stability in MCF-7/vBOS cells. Therefore, EGTA-containing medium (8×10^−3 M) was applied to both control cells and cells pre-treated for 48 hours with fulvestrant to disrupt homophilic E-Cadherin binding, and the fraction of rounded cells was monitored over the course of 120 minutes by live imaging. Quantification of rounded cells vs. non-rounded cells was done in analogous manner as described above in example 7 for quantification of continuous and discontinuous adherens junctions.

[1] = system: MCF-7/vBOS breast cancer cells; assay: Cell stiffness by atomic force microscopy (AFM) indentation
Description: (§1) FIG. 10 illustrates that inhibition of ERα signaling increases tissue stability by modulating cell mechanics and cell motility. (A) Quantification of cell stiffness (Apparent elastic (Young's) modulus) by atomic force microscopy (AFM) indentation measurements on cells treated with fulvestrant for 48 hours (ERepl.1=0.7141±0.1193 kPa; ERepl.2=0.651±0.1407 kPa; ERepl.3=0.5938±0.1564 kPa; mean±s.d.) compared to solvent control cells (, ERepl.1=0.4841±0.1194 kPa; ERepl.2=0.4088±0.1513 kPa; ERepl.3=0.4660±0.1189 kPa). Biological replicates, n=3; 50-60 cells per condition. Boxes, 25th, 50th (median), and 75th percentiles. Whiskers, 10th and 90th percentiles. Cross, mean for each group. Statistical testing, Mann-Whitney tests; **, p values<0.01. (B) Quantification of cell motility (velocity) by manual tracking of cells treated with fulvestrant for 48 hours (VRepl.1=0.0613±0.0176 μm/min; VRepl.2=0.0553±0.0157 μm/min; VRepl.3=0.051±0.014 μm/min; mean±s.d.) compared to solvent control cells (VRepl.1=0.113±0.0237 μm/min; VRepl.2=0.0757±0.023 μm/min; VRepl.3=0.0827±0.0174 μm/min). Biological replicates, n=3; 3 fields with 10 cells each per replicate and condition were imaged every 10 minutes over the course of 16 h. Boxes, 25th, 50th (median), and 75th percentiles. Whiskers, 10th and 90th percentiles. Cross, mean for each group. Statistical testing, Mann-Whitney tests; **, p values<0.01.
To test whether anti-estrogens also impact on the biomechanical properties of MCF-7/vBOS breast cancer cells, the inventors performed atomic force microscopy (AFM) indentation measurements on confluent monolayers. For this purpose, MCF7/vBos cells were grown and treated in 35 mm FluoroDish cell culture dishes (WPI) as described above. AFM indentation measurements were performed in CO2 Independent Medium (Gibco) at 37° C. using the NanoWizard 1 or 4 (JPK Instruments). Prior to measurements, tip-less Arrow-TLlsilicone cantilevers (Nanoworld) were equipped with polystyrene beads of 5 μm in diameter (microParticles GmbH, Germany) using epoxy glue, and calibrated using built-in procedures of the SPM software (JPK Instruments). The cantilever was positioned above the confluent epithelial monolayer and lowered with a speed of 10 μm/s. In each experiment, force-distance curves (force setpoint 2.5 nN) from 3-4 different positions per cell were collected. Force-distance curves were transformed into force-versus-tip sample separation curves according to Radmacher (Methods Cell Biol 2002; 68:67-90), and fitted with the Hertz/Sneddon model (27) for a spherical indenter using the JPK Data Processing software (JPK Instruments). […] Apparent elastic (Young's) moduli were determined using the Hertz model for a quadratic pyramid using the JPK Data Processing software (JPK Instruments).

[2] = system: MCF-7/vBOS breast cancer cells; assay: Cell motility by manual tracking in confluent monolayer after scratch
Description: as §1
Given that anti-estrogens increase adherens junction stability and cell rigidity, the inventors asked whether cell motility was likewise affected.

MCF-7/BOS cells = assay: Adherens junction morphology upon fulvestrant in parental MCF-7/BOS cells; settings: 10^−8 M, 48 h
Description: (§2) Next, the inventors tried to reproduce the effects obtained with the cells as deposited under DSM ACC3321 with other conventional MCF-7 cells, namely MCF-7/BOS provided by Prof. Ana Soto (Tufts University School of Medicine, Boston, Mass., USA) and the MCF-7/ACC115 clone obtained from the Leibniz-Institut DSMZ-Deutsche Sammlung von Mikroorganismen and Zellkulturen GmbH (Braunschweig, Germany).
(§3) Briefly, the MCF-7 cells were seeded and grown on glass coverslips in multi-well tissue culture plates (TPP) for 24 h to reach near 100% confluence and then treated for at least 48 h with 0.1% EtOH (solvent control) and the ERα antagonist fulvestrant (Sigma-Aldrich, CAS-No. 129453-61-8) at a concentration of 10^−8 M. During experiments, medium was exchanged on a daily basis. All experiments were performed at 37° C. with 5% CO2 in reduced-serum medium (phenol red-free DMEM (Gibco), 5% FBS (Biochrom, S 0615, LOT1353 W), 1% glutamine, 100 μg/ml streptomycin/100 U/ml penicillin (Biochrom)).

MCF-7/ACC115 cells = assay: Adherens junction morphology upon fulvestrant in MCF-7/ACC115 cells; settings: 10^−8 M, 48 h
Description: as §2, §3

[3] = treated 48 hours, mean±s.d., replicate 1
[4] = treated 48 hours, mean±s.d., replicate 2
[5] = treated 48 hours, mean±s.d., replicate 3

Compound: C[C@]12CC[C@@H]3c4ccc(O)cc4C[C@@H](CCCCCCCCC[S+]([O-])CCCC(F)(F)C(F)(F)F)[C@H]3[C@@H]1CC[C@@H]2O (stereo partly drawn) [Fulvestrant]
- rate of cell rounding (MCF-7/vBOS cells): significantly reduced
- cell rigidity ([1]; throughout the cell surface and at junctional regions, vs solvent control): significantly elevated
- Apparent elastic (Young's) modulus, Repl.1 [1, 3]: 0.7141±0.1193 kPa
- Apparent elastic (Young's) modulus, Repl.2 [1, 4]: 0.651±0.1407 kPa
- Apparent elastic (Young's) modulus, Repl.3 [1, 5]: 0.5938±0.1564 kPa
- cell motility (velocity), Repl.1 [2, 3]: 0.0613±0.0176 μm/min
- cell motility (velocity), Repl.2 [2, 4]: 0.0553±0.0157 μm/min
- cell motility (velocity), Repl.3 [2, 5]: 0.051±0.014 μm/min
- velocity of cells ([2]; vs solvent control): significantly reduced
- length of cell trajectories ([2]; vs solvent control, data not shown): significantly reduced
- adherens junctions morphology in absence and presence of fulvestrant (MCF-7/BOS cells): same continuous adherens junctions morphology
- adherens junctions morphology in absence and presence of fulvestrant (MCF-7/ACC115 cells): same continuous adherens junctions morphology
